Assay results as given in article PMC10405867 (Journal of Enzyme Inhibition and Medicinal Chemistry, 2023).

Molecular target: SARS-CoV-2 Mpro (Severe acute respiratory syndrome coronavirus 2, UniProt P0DTD1)
Assay: biochemical
Format: biochemical

Compound | IC50 | fold decreased 3CL-Pro inhibitory activity than unsubstituted counterpart 6a
NS(=O)(=O)c1ccc(NC(=O)Cn2cc(CN3C(=O)C(=O)c4ccccc43)nn2)cc1 [6a, 2–(4-((2,3-Dioxoindolin-1-yl)methyl)-1H-1,2,3-triazol-1-yl)-N-(4-sulfamoylphenyl)acetamide] | 0.562 ± 0.005 µM | –
NS(=O)(=O)c1ccc(NC(=O)Cn2cc(CN3C(=O)C(=O)c4cc(OC(F)(F)F)ccc43)nn2)cc1 [6d, 2–(4-((2,3-Dioxo-5-(trifluoromethoxy)indolin-1-yl)methyl)-1H-1,2,3-triazol-1-yl)-N-(4-sulfamoylphenyl)acetamide] | 1.05 ± 0.053 µM | about 2 fold
CC(=O)c1ccc(NC(=O)Cn2cc(CN3C(=O)C(=O)c4ccccc43)nn2)cc1 [10a, N-(4-Acetylphenyl)-2–(4-((2,3-dioxoindolin-1-yl)methyl)-1H-1,2,3-triazol-1-yl)acetamide] | 12.3 ± 0.73 µM | –
COc1ccc2c(c1)C(=O)C(=O)N2Cc1cn(CC(=O)Nc2ccc(C(C)=O)cc2)nn1 [10b, N-(4-Acetylphenyl)-2–(4-((5-methoxy-2,3-dioxoindolin-1-yl)methyl)-1H-1,2,3-triazol-1-yl)acetamide] | 17.1 ± 0.815 µM | –
